The results in this text go back to patent US20170313674A1, “BENZYLHYDROXIDE DERIVATIVES, PREPARATION THEREOF AND THERAPEUTIC USE THEREOF” (SANOFI, priority 2014, published 2017).

In assay [1] the test system is HIF-1a. Description: Western blot model: HIF1-a stabilization in Hep3b cells under hypoxia. Type of assay: cell-based. Conditions: hypoxia 1% O2, 6 hours; for Western Blot (range of decrease of HIF1-a stabilization): class symbol. The method in brief: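 Hep3B cells were exposed to compound under hypoxia (1% O2, 37 °C, 5% CO2) for 6 hours. HIF-1a was detected by western blot of 25 μg lysate protein with β-actin as loading control and ECL read-out. Activity is given as a percentage range relative to control.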
(A western blot detects proteins with antibodies after separation by electrophoresis.)

For assay [2], the system named is mitochondrial ATP production on non-small cell lung carcinoma cell lines NCI-H460. Description: Mitochondrial ATP analysis (Cell Titer Glo) in NCI-H460 cells. The class given is cell-based. Conditions: Homo sapiens, NCI-H460, 1 h, 1-hour incubation, with sodium iodoacetate (100 μM), concentration inhibiting 50% of mitochondrial ATP production, read-out: IC50 (mito ATP). The method in brief:
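NCI-H460 cells (1,000/well) treated 24 h after plating for 1 h with compound dose series alone or with 100 μM sodium iodoacetate; oligomycin A (10 μg/ml) and FCCP (30 μM) as controls; Cell Titer Glo luminescence. Mitochondrial ATP = ATP under iodoacetate minus ATP under iodoacetate+oligomycin; IC50 (M).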
In general terms: Cellular ATP, detected with luciferase, serves as a proxy for viable cell number.

As usually defined, the IC50 is the midpoint of a concentration-inhibition curve. On to `COc1ccc(C(O)COc2ccc(-c3nc(-c4ccc(OCC(O)c5ccc(OC)c(OC)c5)cc4)c(C)o3)cc2)cc1OC` (stereo not drawn) [Compound I-1, 1-(3,4-dimethoxyphenyl)-2-[4-[2-[4-[2-(3,4-dimethoxyphenyl)-2-hydroxy-ethoxy]phenyl]-5-methyl-oxazol-4-yl]phenoxy]ethanol], for which, in assay [1], the “Western Blot (decrease of HIF1-a stabilization, percentage relative to control)” value was 48% and the “Western Blot (range of decrease of HIF1-a stabilization)” value is listed as “* (* represents a decrease of HIF-a stabilization between 30 to 50%)”. Further, the IC50 in assay [2] is 353 nM.

On to `COc1ccc(C(O)C(C)(C)Oc2ccc(-c3nc(-c4ccc(OC(C)(C)C(O)c5ccc(OC)c(OC)c5)cc4)c(C)o3)cc2)cc1OC` (stereo not drawn) [Compound I-2, 1-(3,4-dimethoxyphenyl)-2-[4-[2-[4-[2-(3,4-dimethoxyphenyl)-2-hydroxy-1,1-dimethyl-ethoxy]phenyl]-5-methyl-oxazol-4-yl]phenoxy]-2-methyl-propan-1-ol], for which, in assay [1], the “Western Blot (decrease of HIF1-a stabilization, percentage relative to control)” value amounted to 54% and the “Western Blot (range of decrease of HIF1-a stabilization)” value is listed as “** (** represents a decrease of HIF-a stabilization between 50 to 70%)”. In addition, the IC50 in assay [2] was 23 nM.

In the case of `COc1ccc(C(O)C(C)(C)Oc2ccc(-c3nc(-c4ccc(OC(C)(C)C(O)c5ccc(OC)c(OC)c5)cc4)c(C)s3)cc2)cc1OC` (stereo not drawn) [Compound I-6, 1-(3,4-dimethoxyphenyl)-2-[4-[2-[4-[2-(3,4-dimethoxyphenyl)-2-hydroxy-1,1-dimethyl-ethoxy]phenyl]-5-methyl-thiazol-4-yl]phenoxy]-2-methyl-propan-1-ol], in assay [1], the “Western Blot (decrease of HIF1-a stabilization, percentage relative to control)” value came out at 43% and the “Western Blot (range of decrease of HIF1-a stabilization)” value is given as “* (* represents a decrease of HIF-a stabilization between 30 to 50%)”. Besides, in assay [2], the IC50 was 21.3 nM.

`COc1ccc(C(O)COc2ccc(-c3nc(-c4ccc(OCC(O)c5ccc(OC)c(OC)c5)cc4)c(C)s3)cc2)cc1OC` (stereo not drawn) [Compound I-7, 1-(3,4-dimethoxyphenyl)-2-[4-[2-[4-[2-(3,4-dimethoxyphenyl)-2-hydroxy-ethoxy]phenyl]-5-methyl-thiazol-4-yl]phenoxy]ethanol]: in assay [1], the “Western Blot (decrease of HIF1-a stabilization, percentage relative to control)” value came to 63% and the “Western Blot (range of decrease of HIF1-a stabilization)” value is on record as “** (** represents a decrease of HIF-a stabilization between 50 to 70%)”. The IC50 in assay [2] was determined as 284 nM.

With `COc1ccc(C(O)C(C)Oc2ccc(-c3coc(-c4ccc(OC(C)C(O)c5ccc(OC)c(OC)c5)cc4)n3)cc2)cc1OC` (stereo not drawn) [Compound I-12, 1-(3,4-dimethoxyphenyl)-2-[4-[2-[4-[2-(3,4-dimethoxyphenyl)-2-hydroxy-1-methyl-ethoxy]phenyl]oxazol-4-yl]phenoxy]propan-1-ol], in assay [1], the “Western Blot (decrease of HIF1-a stabilization, percentage relative to control)” value was determined as 38% and the “Western Blot (range of decrease of HIF1-a stabilization)” value is listed as “* (* represents a decrease of HIF-a stabilization between 30 to 50%)”. The IC50 in assay [2] amounted to 128 nM.

In the case of `COc1ccc(C(O)C(C)(C)Oc2ccc(-c3csc(-c4ccc(OC(C)(C)C(O)c5ccc(OC)c(OC)c5)cc4)n3)cc2)cc1OC` (stereo not drawn) [Compound I-26, 1-(3,4-dimethoxyphenyl)-2-[4-[2-[4-[2-(3,4-dimethoxyphenyl)-2-hydroxy-1,1-dimethyl-ethoxy]phenyl]thiazol-4-yl]phenoxy]-2-methyl-propan-1-ol], in assay [1], the “Western Blot (decrease of HIF1-a stabilization, percentage relative to control)” value is reported as 39% and the “Western Blot (range of decrease of HIF1-a stabilization)” value is “* (* represents a decrease of HIF-a stabilization between 30 to 50%)”. Besides, the IC50 in assay [2] is 7.32 nM.
